According to patent publication US4690945A, “Process for the preparation of 5'-substituted 2-(3'-thienyl)propionic acids” (Laboratorios Madaus Cerafarm, S.A., priority 1981, dated 1987):
Entries after “also recorded” stand apart in the source; their conditions may differ.

Legend:
[1] = overall pharmacological (anti-inflammatory and analgesic) action, tests on rats and mice; format: in vivo; conditions: for anti-inflammatory activity (in words): in mammals; for pharmacological action (in words): analgesic and anti-inflammatory
Method: (§1) The pharmacological tests were performed on rats and mice, using the carrageenin edema procedure on rats' legs and backs by the test for anti-inflammatory action and the acetic acid contorsion and hot plate tests on mice for the purpose of testing analgesic action.
(§2) In the anti-inflammatory action test, the test was performed on rat leg edema induced by carrageenin, administering the compounds per os and measuring the volume of the edema 3 hours later by plethysmography.
(§3) The anti-inflammatory action of these compounds was also examined by the carrageenin abscess test on rats' backs, the abscess being weighed 24 hours after administration of the product.
(§4) For the examination of analgesic action, the acetic acid and hot plate tests were used.
(§5) In the acetic acid test, the number of contorsions (stretching) is determined, which are produced for 30 minutes following intraperitoneal administration of dilute acetic acid. Analgesic action is also tested by the hot plate test in which the pain stimulus is thermal, the time being measured in seconds which the animal takes to respond to the stimulus by licking its feet.

[2] = system: rat leg edema induced by carrageenin; assay: carrageenin edema procedure on rats' legs (Δ volume), anti-inflammatory action; format: in vivo; parameters: key to Anti-inflammatory action, Δ volume: +++: Intense action; ++: Medium action; +: Minimal action; ±: Doubtful action; -: Negative action; --: Not tested; conditions: per os, 3 hours; for Anti-inflammatory action, Δ volume: class symbol; for ED50: po
Method: as §1, §2
(§6) The results obtained in both tests are expressed as a percentage of inhibition of the edema or abscess, and were better than 30% in comparison with a control group.

[3] = acute toxicity (DL50 / LD50); conditions: mouse, in vivo
Excerpt: Most of the compounds described in these examples have been tested pharmacologically and toxicologically (DL50) according to the methods indicated on pages 5 to 7, and the results are summarized in the appended table.

[4] = system: carrageenin abscess on rats' backs; assay: carrageenin abscess test on rats' backs (Δ abscess), anti-inflammatory action; format: in vivo; parameters: key to Anti-inflammatory action, Δ abscess: +++: Intense action; ++: Medium action; +: Minimal action; ±: Doubtful action; -: Negative action; --: Not tested; conditions: rat back carrageenin abscess, weighed 24 hours after administration; for Anti-inflammatory action, Δ abscess: class symbol
Method: as §1, §3, §6

[5] = system: contorsions (stretching) induced by intraperitoneal dilute acetic acid; assay: acetic acid contorsion test on mice, analgesic action; format: in vivo; parameters: key to Analgesic action, Acetic acid: +++: Intense action; ++: Medium action; +: Minimal action; ±: Doubtful action; -: Negative action; --: Not tested; conditions: for ED50: Mus musculus, ip, 0.5 h; for ED50 / Analgesic action, Acetic acid: mice, contorsions during 30 minutes after i.p. acetic acid; for analgesic action (in words): acetic acid and hot plate tests; for Analgesic action, Acetic acid: class symbol
Method: as §5, with “The pharmacological tests were performed on rats and mice, using the carrageenin edema procedure on rats' legs and backs by the test for anti-inflammatory action and the acetic acid contorsion and hot plate tests on mice for the purpose of testing analgesic action. For the examination of analgesic action, the acetic acid and hot plate tests were used. […] In” for “In”

[6] = system: thermal pain stimulus (hot plate); assay: hot plate test on mice, analgesic action; format: in vivo; parameters: key: +++: Intense action; ++: Medium action; +: Minimal action; ±: Doubtful action; -: Negative action; --: Not tested; conditions: class symbol
Method: as §1, §4, §5

CC(C(=O)O)c1csc(C(=O)c2ccccc2)c1 (stereo not shown) [A]
anti-inflammatory activity (in words) [1]: potent anti-inflammatory activity

CC(C(=O)O)c1csc(C(=O)c2ccc(Cl)cc2)c1 (stereo not shown) [B]
anti-inflammatory activity (in words) [1]: potent anti-inflammatory activity

CC(C(=O)O)c1csc(C(=O)c2ccccc2)c1 (stereo not shown) [LMC-I, 2-(5'-benzoyl-3'-thienyl)propionic acid]
Anti-inflammatory action, Δ volume [2]: +++
ED50 [2]: 7.3 mg/kg
LD50 [3]: ~400 mg/kg
ED50 [4]: 12.5 mg/kg
Anti-inflammatory action, Δ abscess [4]: +++
ED50 [5]: 50 mg/kg
analgesic action (in words) [5]: have an analgesic action
Analgesic action, Acetic acid [5]: +++
pharmacological action (in words) [1]: notable analgesic and anti-inflammatory action; also recorded: most active compounds
anti-inflammatory activity (in words) ([1]; listed as I): anti-inflammatory activity in mammals

CC(C(=O)O)c1csc(C(=O)c2ccc(Cl)cc2)c1 (stereo not shown) [LMC-II, 2-(5'-(4"-chloro)benzoyl-3'-thienyl)propionic acid]
Anti-inflammatory action, Δ volume [2]: +++
ED50 [2]: 17.3 mg/kg
LD50 [3]: ~1200 mg/kg
ED50 [4]: 23.5 mg/kg
Anti-inflammatory action, Δ abscess [4]: +++
ED50 [5]: 69.6 mg/kg
analgesic action (in words) [5]: have an analgesic action
Analgesic action, Acetic acid [5]: +++
pharmacological action (in words) [1]: notable pharmacological action, though it is inferior to that of compound I; also recorded: most active compounds
anti-inflammatory activity (in words) ([1]; listed as II): anti-inflammatory activity in mammals

CC(C(=O)O)c1csc(C(=O)c2ccc(Cl)cc2Cl)c1 (stereo not shown) [LMC-III, 2-(5'-(2",4"-dichloro)benzoyl-3'-thienyl)propionic acid]
Anti-inflammatory action, Δ volume [2]: ±
LD50 [3]: ~1000 mg/kg
Analgesic action, Plate [6]: +
Anti-inflammatory action, Δ abscess [4]: +
Analgesic action, Acetic acid [5]: +

Cc1ccc(C(=O)c2cc(C(C)C(=O)O)cs2)cc1 (stereo not shown) [LMC-IV]
Anti-inflammatory action, Δ volume [2]: +++
LD50 [3]: ~1200 mg/kg
Analgesic action, Plate [6]: ++
Anti-inflammatory action, Δ abscess [4]: ++
Analgesic action, Acetic acid [5]: ++
pharmacological action (in words) [1]: best representative of this action

CC(C)C(=O)c1cc(C(C)C(=O)O)cs1 (stereo not shown) [LMC-V, 2-(5'-isobutyryl-3'-thienyl)propionic acid]
Anti-inflammatory action, Δ volume [2]: ++
LD50 [3]: ~1500 mg/kg
Analgesic action, Plate [6]: +
Anti-inflammatory action, Δ abscess [4]: +

CC(C(=O)O)c1csc(Cc2ccccc2)c1 (stereo not shown) [LMC-VII, 2-(5'-benzyl-3'-thienyl)propionic acid]
Anti-inflammatory action, Δ volume [2]: +
LD50 [3]: ~1500 mg/kg

CC(C)Cc1cc(C(C)C(=O)O)cs1 (stereo not shown) [LMC-VI]
Anti-inflammatory action, Δ volume [2]: +
LD50 [3]: > 1000 mg/kg
Analgesic action, Plate [6]: +
Anti-inflammatory action, Δ abscess [4]: +
